Experimental data reported in US20170246166A1, “1,2-BENZOTHIAZOLE COMPOUNDS FOR THE TREATMENT OF KIDNEY DISORDERS” (priority 2014, published 2017).

What was measured:
human PKCβ2 = human PKCβ2 (Homo sapiens, UniProt P05771); assay: PKC isoforms based HTRF KinEASE-STK assay, PKCβ2; format: biochemical; details: 25 μM ATP in substrate mix, 30 min
Excerpt: (§1) The purpose of this assay is to evaluate the inhibitory activity of compounds on various PKC isoforms. It has been reported that perturbations in vascular cell homeostasis caused by different PKC isoforms (PKC-α, β1/2, and PKC-δ) are linked to the development of pathologies affecting large vessel (atherosclerosis, cardiomyopathy) and small vessel (retinopathy, nephropathy, and neuropathy) complications. Geraldes, P. and King, G. L., “Activation of Protein Kinase C Isoforms and Its Impact on Diabetic Complications”, Cir.
(§2) Effects of a test compound on the kinase activity of PKCα, β2, δ, ε, ι, and ζ, are determined using a HTRF KINEASE™-STK assay kit (Cisbio) in accordance with the protocol provided by the vendor. It is a general method for measuring Serine/Threonine kinase activities using kinase substrates and a universal detection system. In the current protocol, biotinilated STK1provided in the assay kit is used as the substrate that can be phosphorylated by any PKC isoform. The HTRF KINEASE™-STK assay kit format involves the two steps (Enzymatic step and Detection step) described below. First, the kinase phosphorylates the substrate in the presence of ATP. Second, the detection reagents provided in the assay kit recognize the phosphorylated substrate.

PKC = assay: Cell-based assay of PKC inhibition (PKC substrate phosphorylation in THP-1 cells); details: human THP-1 cells, 1.5 h compound, then 20 nM PMA for 30 min; read-out: absolute IC50, PKC substrate phosphorylation
Procedure: The purpose of this assay is to test the inhibitory effects of a test compound on PKC in a cell-based system by measuring the level of PKC substrate phosphorylation.
Staurosporin may be used as a positive control. It is prepared in DMSO to make up a […] solution and then serially diluted in plain RPMI 1640 culture medium (10 μM-0.0005 μM) to obtain a ten-point dilution curve. Test compounds are prepared in the same manner.
THP-1 cells (human macrophage cell line) are obtained from ATCC (ATCC TIB-202 lot 4028542). The cells are cultured in 96-well plates coated with poly-d-lysine (Becton Dickinson) with seeding density of 4000 cells/well in RPMI 1640 culture medium (Gibco) with 1% fetal bovine serum (Gibco). […]
After the incubation, the cells are first fixed in the Prefer fixative (ANATECH LTD) for 30 min at room temperature. […] Plates are scanned with an ACUMEN EXPLORER™ Laser-scanning fluorescence microplate cytometer (TTP LABTECH LTD), with 488 nm laser excitation to detect emission fluorescence at 655 nm-705 nm (emission of DNA bound propidium iodide) for cell counting/well, and emission of 505 nm-530 nm fluorescence of antibody binding to phosphorylated PKC substrates in cells. The main assay output is a ratio of total fluorescence of phosphorylated PKC substrates to total cell number (ratio=total intensity/total cell number). […]

human PKCδ = human PKCδ (Homo sapiens, UniProt Q05655); assay: PKC isoforms based HTRF KinEASE-STK assay, PKCδ; format: biochemical; details: 62.5 μM ATP in substrate mix, 40 min
Sequence of human PKCδ (Q05655 whole entry, canonical isoform): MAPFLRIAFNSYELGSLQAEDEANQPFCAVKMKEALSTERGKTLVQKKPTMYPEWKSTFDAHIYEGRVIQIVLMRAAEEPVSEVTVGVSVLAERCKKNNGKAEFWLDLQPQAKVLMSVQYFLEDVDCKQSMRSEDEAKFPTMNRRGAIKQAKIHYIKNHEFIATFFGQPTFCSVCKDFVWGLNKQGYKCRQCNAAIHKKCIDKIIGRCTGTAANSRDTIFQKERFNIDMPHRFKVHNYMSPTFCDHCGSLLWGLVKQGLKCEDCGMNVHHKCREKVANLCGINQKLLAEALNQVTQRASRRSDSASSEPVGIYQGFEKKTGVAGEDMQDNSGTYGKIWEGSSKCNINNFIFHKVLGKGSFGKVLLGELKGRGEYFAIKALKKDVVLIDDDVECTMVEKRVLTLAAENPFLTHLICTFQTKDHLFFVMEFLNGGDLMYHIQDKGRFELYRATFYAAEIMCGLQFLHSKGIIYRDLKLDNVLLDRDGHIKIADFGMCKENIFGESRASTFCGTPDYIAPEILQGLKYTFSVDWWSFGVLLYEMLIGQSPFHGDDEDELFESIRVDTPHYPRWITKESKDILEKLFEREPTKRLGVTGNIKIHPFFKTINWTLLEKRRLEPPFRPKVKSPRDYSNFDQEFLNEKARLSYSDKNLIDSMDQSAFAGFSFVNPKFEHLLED
Excerpt: as §1, §2

human PKCζ = target: T1, human PKCζ (Homo sapiens, UniProt Q05513); assay: PKC isoforms based HTRF KinEASE-STK assay, PKCζ; format: biochemical; details: 10 μM ATP in substrate mix, 70 min
T1 sequence (Q05513 1-592): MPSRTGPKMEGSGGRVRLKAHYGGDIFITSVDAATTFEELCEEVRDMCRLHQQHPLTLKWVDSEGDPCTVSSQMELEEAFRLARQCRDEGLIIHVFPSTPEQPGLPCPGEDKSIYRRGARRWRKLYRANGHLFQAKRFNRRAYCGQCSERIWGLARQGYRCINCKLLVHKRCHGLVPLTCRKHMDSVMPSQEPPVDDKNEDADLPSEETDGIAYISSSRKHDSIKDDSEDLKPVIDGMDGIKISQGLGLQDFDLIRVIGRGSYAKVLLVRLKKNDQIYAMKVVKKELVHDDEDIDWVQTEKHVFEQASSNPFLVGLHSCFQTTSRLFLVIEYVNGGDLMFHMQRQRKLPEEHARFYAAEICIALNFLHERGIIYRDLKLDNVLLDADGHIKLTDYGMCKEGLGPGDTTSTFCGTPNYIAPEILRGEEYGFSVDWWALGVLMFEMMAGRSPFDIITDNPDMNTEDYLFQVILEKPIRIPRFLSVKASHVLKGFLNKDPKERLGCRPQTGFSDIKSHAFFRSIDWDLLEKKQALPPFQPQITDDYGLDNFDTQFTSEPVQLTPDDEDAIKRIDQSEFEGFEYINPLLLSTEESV
Excerpt: as §1, §2

Sequence of human PKCβ2 (P05771 1-673 isoform P05771-2): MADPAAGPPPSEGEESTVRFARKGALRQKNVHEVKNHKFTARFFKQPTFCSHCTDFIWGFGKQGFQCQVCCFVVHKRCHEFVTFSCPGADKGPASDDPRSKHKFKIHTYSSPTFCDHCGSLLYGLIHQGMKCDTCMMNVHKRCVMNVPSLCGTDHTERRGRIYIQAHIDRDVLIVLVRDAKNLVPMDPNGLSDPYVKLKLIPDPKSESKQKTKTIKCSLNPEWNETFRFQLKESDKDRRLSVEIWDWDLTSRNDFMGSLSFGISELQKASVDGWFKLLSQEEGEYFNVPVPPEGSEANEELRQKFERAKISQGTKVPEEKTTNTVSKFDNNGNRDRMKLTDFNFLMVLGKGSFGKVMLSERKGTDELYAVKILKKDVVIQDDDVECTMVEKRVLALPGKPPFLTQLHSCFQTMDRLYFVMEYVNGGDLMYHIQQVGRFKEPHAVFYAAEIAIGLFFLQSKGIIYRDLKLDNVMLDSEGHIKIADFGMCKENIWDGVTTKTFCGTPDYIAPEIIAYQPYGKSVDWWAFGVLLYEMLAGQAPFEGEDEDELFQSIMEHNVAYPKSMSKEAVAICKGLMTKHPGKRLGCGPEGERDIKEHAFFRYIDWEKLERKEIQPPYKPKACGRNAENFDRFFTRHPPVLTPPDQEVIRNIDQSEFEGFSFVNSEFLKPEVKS

Question: Which IC50 (human PKCβ2) does the source give for C[C@@H]1CN(C(=O)c2cc(-c3c(F)cc(O)cc3F)cc3cnsc23)C[C@H](C)N1.Cl [Example 2, 4-(7-{[(3R,5 S)-3,5-DIMETHYLPIPERAZIN-1-YL]CARBONYL}-1,2-BENZOTHIAZOL-5-YL)-3,5-DIFLUOROPHENOL HYDROCHLORIDE] here?
Answer: ~51 nM

Question: What about the IC50 (PKC) of the same compound?
Answer: ~800 nM

Question: And the IC50 (human PKCδ)?
Answer: ~68 nM

Question: What about the IC50 (human PKCζ) of the same compound?
Answer: ~15500 nM
